# From US20110111976A1, “MICRORNA BIOMARKERS OF TISSUE INJURY” (priority 2008, published 2011)
# Values joined by “and” are separate entries in the source; they are usually repeats but may differ in a detail not shown here. Identical values can stand only once.
# How the values were obtained:
# [1] = test system: Sprague-Dawley rats; experiment: Pooled sample study: miR-122 in blood plasma of toxicant-treated rats by qPCR; assay type: in vivo; conditions: pooled rat plasma (5 samples), cerivastatin 1.0 mg/kg/day oral Day 14, CBrCl3 0.1 ml/kg oral Days 2 & 4, TMPD 6 mg/kg bid s.c. Day 3; for miR-122 Copies / miR-122 Ct Mean: 250 ng total RNA input
# Method: (§1) To explore the feasibility of detecting miRNA tissue injury biomarkers in plasma, a pilot study was performed in which pooled blood plasma samples from rat toxicology studies were analyzed using a qPCR-based assay (Raymond et at, 2005, RNA 11:1737; WO 2006/081282). The miRNAs miR-122 and miR-133 were chosen for quantification because they are extremely abundant and specific to liver and muscle, respectively (FIG. 1). Stored plasma samples from rats that had previously been treated with a liver damaging agent trichlorobromomethane (CBrCl3) or with one of two muscle damaging agents 2,3,5,6-tetramethyl-p phenylenediamine (TMPD) or cerivastatin) were assayed form miRNA levels using qPCR.
# (§2) Animals Male and female Sprague-Dawley rats were obtained from Charles River Laboratories, Inc. (Raleigh, N.C.). The rats were approximately seven to eight weeks of age and weighed from 125 to 325 grams at the start of the study. The animals were acclimated for approximately one week and randomized into treatment and control groups. During the toxicity studies targeting liver, the animals were maintained on a caloric-restricted diet, and fasted overnight prior to necropsy. Doses were different for each model compound tested and were calculated based on animal body weight. For the compounds, routes of administration, dose groups, and time points, see the below compound section.
# (§3) Skeletal Muscle Toxicant • 2,3,5,6-tetramethyl-p phenylenediamine (TMPD) • Doses: 6 mg/kg bid • Dosing: 0.9% NaCl by subcutaneous injection • Animals: Sprague Dawley Male Rats • Time Points Day 3, TMPD Plasma (Day 3) and Controls (5 samples, 100 ul each pooled=500 ul total).
# (§4) Liver Toxicant • Trichlorbromomethane (CCl3Br) • Doses: 0.1 ml/kg • Dosing: 100% liquid paraffin by oral gavage • Animals: Sprague Dawley Male Rats • Time Point: Day 2, 4 CCl3Br Plasma (Days 2 & 4) and Controls (5 samples, 100 ul each pooled=500 ul total)
# (§5) Liver and Muscle Toxicant • Cerivastatin • Doses: 1.0 mg/kg/day • Dosing: 0.5% methylcellulose by oral gavage • Animals: Sprague Dawley Female Rats • Time Point Day 14 Cerivastatin Plasma (Day 14) and Controls (5 samples, 100 ul each pooled=500 μl total)
# (§6) Plasma Samples All plasma samples were collected in EDTA tubes at final necropsy from the vena cava. Samples were inverted several times, and centrifuged for 20 minutes at 2,900 RPM at 4° C. Plasma samples were removed and stored at −70° C. Pooled blood plasma samples from rat toxicology studies were analyzed using a qPCR-based assay (Raymond et al, 2005, RNA 11:1737; WO 2006/081282). Control slope and intercept values for miR-122 and miR-133 were calculated from a concentration series of each microRNA added to total yeast RNA and then analyzed using the qPCR assay for each miRNA. The slope and intercept values from the standard curve were used to calculate the amount of each respective miRNA in each sample expressed as the number of miRNA copies per 20 ng of total RNA in each sample. Cycle threshold values (Ct) for each sample were converted to miRNA copy numbers by comparison to standard curves generated using single stranded mature miRNAs and are expressed as copies/20 pg input RNA (approximately equivalent to copies/cell).
# [2] = test system: Sprague-Dawley rats; experiment: Liver histopathology scores of toxicant-treated rats; assay type: in vivo, rat; parameters: key to Liver Histopathology Scores: Vacuolation / Liver Histopathology Scores: Necrosis / Liver Histopathology Scores: Degeneration / Liver Histopathology Scores: Inflammation / Liver Histopathology Scores: Mitotic Index: 1 = very slight; 2 = slight or small; 3 = moderate; 4 = marked; 5 = severe tissue injury
# Method: (§7) To follow up on the initial results shown in Example 2, blood samples from 44 individual rats that had been treated with varying doses of CBrCl3, CCl4 (another liver toxicant), or TMPD were evaluated using qPCR of miR-122 and miR-133. In addition, data from histopathology and a panel of standard biomarkers (ALT, AST, CK, skTnI, etc.) were also available for these same individual rats and were used to compare the results from microRNA assays with the standard histopathology and protein biomarkers.
# as §2
# (§8) Liver Toxicant • Trichlorobromomethane (CCl3Br) • Doses: 0.03, 0.1 ml/kg • Dosing: 100% liquid paraffin by oral gavage • Animals: Sprague Dawley Male Rats • Time Point: CCl3Br Plasma (Days 2 & 4) and Controls (4 controls, 3 samples per group, 100 μl each) • Carbon Tetrachloride (CCl4) • Doses: 0.03, 0.1, 0.3 ml/kg • Dosing: 100% liquid paraffin by oral gavage • Animals: Sprague Dawley Male Rats • Time Point: CCl4 Plasma (Days 2) and Controls (4 samples per group, 100 μl each)
# [3] = test system: Sprague-Dawley rats; experiment: Clinical chemistry (AST, ALT, CK) in blood plasma of toxicant-treated rats; assay type: in vivo, rat; conditions: individual male rats
# Method: as §7, §2
# (§9) Skeletal Muscle Toxicant • 2,3,5,6-tetramethyl-p phenylenediamine (TMPD) • Doses: 2, 4 mg/kg bid • Dosing: 0.9% NaCl by subcutaneous injection • Animals: Sprague Dawley Male Rats • Time Points: TMPD Plasma (Day 2) and Controls (5 samples per group, […] pooled=500 μl total).
# as §8
# [4] = test system: Sprague-Dawley rats; experiment: Individual sample study: miR-133 in blood plasma of toxicant-treated rats by qPCR; assay type: in vivo, rat; conditions: individual male rats
# Method: as §7, §2, §9, §8
# as §6, with “are expressed in Table 4 as copies/20” for “are expressed as copies/20”
# [5] = test system: Sprague-Dawley rats; experiment: Pooled sample study: miR-133 in blood plasma of toxicant-treated rats by qPCR; assay type: in vivo; conditions: pooled rat plasma (5 samples), cerivastatin 1.0 mg/kg/day oral Day 14, CBrCl3 0.1 ml/kg oral Days 2 & 4, TMPD 6 mg/kg bid s.c. Day 3; for miR-133 Copies / miR-133 Ct Mean: 250 ng total RNA input
# Method: as §1, §2, §3, §4, §5, §6
# [6] = test system: Sprague-Dawley rats; experiment: Individual sample study: miR-122 in blood plasma of toxicant-treated rats by qPCR; assay type: in vivo, rat; conditions: individual male rats
# Method: as §7, §2, §9, §8
# as §6, with “are expressed in Table 4 as copies/20” for “are expressed as copies/20”
# [7] = CBrCl3 0.03 mL/kg oral gavage, Day 2, individual male rats
# [8] = CBrCl3 0.03 mL/kg oral gavage, Day 4, individual male rats
# [9] = CBrCl3 0.1 mL/kg oral gavage, Day 4, individual male rats
# [10] = CBrCl3 0.03 mL/kg oral gavage, Day 2, plasma
# [11] = CBrCl3 0.03 mL/kg oral gavage, Day 4, plasma
# [12] = CBrCl3 0.1 mL/kg oral gavage, Day 4, plasma
# [13] = CCl4 0.03 ml/kg oral gavage, Day 2, individual male rats
# [14] = CCl4 0.1 mL/kg oral gavage, Day 2, individual male rats
# [15] = CCl4 0.3 mL/kg oral gavage, Day 2, individual male rats
# [16] = CCl4 0.03 ml/kg oral gavage, Day 2, plasma
# [17] = CCl4 0.1 mL/kg oral gavage, Day 2, plasma
# [18] = CCl4 0.3 mL/kg oral gavage, Day 2, plasma
structure (smiles),measurement,setting,value
"ClC(Cl)(Cl)Br [CBrCl3, trichlorobromomethane]",miR-122 Copies,[1],8.8E+08
same,miR-122 Ct Mean,[1],12.6961
same,miR-122 Copies/20 pg,[1],70674.9 Copies/20 pg
same,Liver Histopathology Scores: Degeneration,[2]; [7],2 and 0 and 1
same,Liver Histopathology Scores: Inflammation,[2]; [7],1 (2×) and 0
same,Liver Histopathology Scores: Mitotic Index,[2]; [7],0
same,Liver Histopathology Scores: Necrosis,[2]; [7],1 and 0 (2×)
same,Liver Histopathology Scores: Degeneration,[2]; [8],0 and 1 (2×)
same,Liver Histopathology Scores: Inflammation,[2]; [8],0
same,Liver Histopathology Scores: Mitotic Index,[2]; [8],0
same,Liver Histopathology Scores: Necrosis,[2]; [8],0
same,Liver Histopathology Scores: Degeneration,[2]; [9],2 and 1 (2×)
same,Liver Histopathology Scores: Inflammation,[2]; [9],2
same,Liver Histopathology Scores: Mitotic Index,[2]; [9],1 (2×) and 2
same,Liver Histopathology Scores: Necrosis,[2]; [9],3 and 1 (2×)
same,ALT,[3]; [10],142 Unit and 36 Unit (2×)
same,AST,[3]; [10],366 Unit and 83 Unit and 93 Unit
same,ALT,[3]; [11],34 Unit and 43 Unit and 32 Unit
same,AST,[3]; [11],138 Unit and 118 Unit and 108 Unit
same,ALT,[3]; [12],1388 Unit and 191 Unit and 223 Unit
same,AST,[3]; [12],1543 Unit and 370 Unit and 519 Unit
same,miR-133,[4]; [10],0.7 copies/20 pg input RNA and 0.2 copies/20 pg input RNA and 0.4 copies/20 pg input RNA
same,miR-133,[4]; [11],1.2 copies/20 pg input RNA and 2.0 copies/20 pg input RNA and 0.3 copies/20 pg input RNA
same,miR-133,[4]; [12],0.8 copies/20 pg input RNA and 0.4 copies/20 pg input RNA (2×)
same,miR-133 Copies,[5],85617.9
same,miR-133 Ct Mean,[5],29.6296
same,miR-133 Copies/20 pg,[5],6.8 Copies/20 pg
same,miR-122,[6]; [10],860.8 copies/20 pg input RNA and 45.1 copies/20 pg input RNA and 47.3 copies/20 pg input RNA
same,miR-122,[6]; [11],90.2 copies/20 pg input RNA and 56.2 copies/20 pg input RNA and 20.5 copies/20 pg input RNA
same,miR-122,[6]; [12],4049.2 copies/20 pg input RNA and 335.5 copies/20 pg input RNA and 304.0 copies/20 pg input RNA
"ClC(Cl)(Cl)Cl [CCl4, Carbon Tetrachloride]",Liver Histopathology Scores: Degeneration,[2]; [13],0
same,Liver Histopathology Scores: Inflammation,[2]; [13],0
same,Liver Histopathology Scores: Necrosis,[2]; [13],0
same,Liver Histopathology Scores: Vacuolation,[2]; [13],0
same,Liver Histopathology Scores: Degeneration,[2]; [14],0 (2×) and 1 (2×)
same,Liver Histopathology Scores: Inflammation,[2]; [14],0 (2×) and 2 and 1
same,Liver Histopathology Scores: Necrosis,[2]; [14],0 (2×) and 1 (2×)
same,Liver Histopathology Scores: Vacuolation,[2]; [14],0 and 1 (3×)
same,Liver Histopathology Scores: Degeneration,[2]; [15],2
same,Liver Histopathology Scores: Inflammation,[2]; [15],2 (3×) and 1
same,Liver Histopathology Scores: Necrosis,[2]; [15],1
same,Liver Histopathology Scores: Vacuolation,[2]; [15],0
same,ALT,[3]; [16],25 Unit (3×) and 20 Unit
same,AST,[3]; [16],92 Unit and 88 Unit and 76 Unit and 84 Unit
same,ALT,[3]; [17],25 Unit and 40 Unit (2×) and 41 Unit
same,AST,[3]; [17],96 Unit and 116 Unit and 102 Unit and 126 Unit
same,ALT,[3]; [18],87 Unit and 77 Unit and 62 Unit and 56 Unit
same,AST,[3]; [18],345 Unit and 216 Unit and 157 Unit and 225 Unit
same,miR-133,[4]; [16],0.3 copies/20 pg input RNA (2×) and 0.5 copies/20 pg input RNA and 1.0 copies/20 pg input RNA
same,miR-133,[4]; [17],0.3 copies/20 pg input RNA (2×) and 0.4 copies/20 pg input RNA (2×)
same,miR-133,[4]; [18],1.4 copies/20 pg input RNA and 0.4 copies/20 pg input RNA and 0.3 copies/20 pg input RNA and 0.1 copies/20 pg input RNA
same,miR-122,[6]; [16],2.4 copies/20 pg input RNA and 5.5 copies/20 pg input RNA and 8.7 copies/20 pg input RNA and 10.0 copies/20 pg input RNA
same,miR-122,[6]; [17],7.9 copies/20 pg input RNA and 107.4 copies/20 pg input RNA and 14.3 copies/20 pg input RNA and 119.4 copies/20 pg input RNA
same,miR-122,[6]; [18],1563.6 copies/20 pg input RNA and 194.3 copies/20 pg input RNA and 191.4 copies/20 pg input RNA and 164.6 copies/20 pg input RNA
COCc1c(C(C)C)nc(C(C)C)c(/C=C/[C@@H](O)C[C@@H](O)CC(=O)O)c1-c1ccc(F)cc1 [Cerivastatin],miR-122 Copies,[1],353217
same,miR-122 Ct Mean,[1],24.2231
same,miR-122 Copies/20 pg,[1],28.3 Copies/20 pg
same,miR-133 Copies,[5],7279643
same,miR-133 Ct Mean,[5],23.1065
same,miR-133 Copies/20 pg,[5],582.4 Copies/20 pg
